Values of other authors in patent publication US9023417B2, “Use of a polyamine-poor composition for the production of a medical human food” (Univeriste de Rennes 1, priority 2003, dated 2015).

System: Escherischia coli

Row | SMILES | inhibition of the synthesis of polyamines in Escherischia coli
1 | C[C@](N)(CCCN)C(=O)O [Alpha-methylornithine, alpha-methylornithine] | inhibiting the synthesis of polyamines
2 | NCCC[C@](N)(C(=O)O)C(F)F [a-DFMO, 2-difluoromethylornithine] | not the case
